Reference: US4663344A, “Anti-inflammatory and analgesic 3-hydroxybenzo[b]thiophene derivatives, compositions, and method of use therefor” (Merck & Co., Inc., priority 1985, dated 1987)

Molecular target: T1, RBL Cell 5-Lipoxygenase (Rattus norvegicus, UniProt P12527)
T1 construct: RBL Cell 5-Lipoxygenase; endogenous in cells; host or cells: RBL cells
T1 sequence (P12527 1-673): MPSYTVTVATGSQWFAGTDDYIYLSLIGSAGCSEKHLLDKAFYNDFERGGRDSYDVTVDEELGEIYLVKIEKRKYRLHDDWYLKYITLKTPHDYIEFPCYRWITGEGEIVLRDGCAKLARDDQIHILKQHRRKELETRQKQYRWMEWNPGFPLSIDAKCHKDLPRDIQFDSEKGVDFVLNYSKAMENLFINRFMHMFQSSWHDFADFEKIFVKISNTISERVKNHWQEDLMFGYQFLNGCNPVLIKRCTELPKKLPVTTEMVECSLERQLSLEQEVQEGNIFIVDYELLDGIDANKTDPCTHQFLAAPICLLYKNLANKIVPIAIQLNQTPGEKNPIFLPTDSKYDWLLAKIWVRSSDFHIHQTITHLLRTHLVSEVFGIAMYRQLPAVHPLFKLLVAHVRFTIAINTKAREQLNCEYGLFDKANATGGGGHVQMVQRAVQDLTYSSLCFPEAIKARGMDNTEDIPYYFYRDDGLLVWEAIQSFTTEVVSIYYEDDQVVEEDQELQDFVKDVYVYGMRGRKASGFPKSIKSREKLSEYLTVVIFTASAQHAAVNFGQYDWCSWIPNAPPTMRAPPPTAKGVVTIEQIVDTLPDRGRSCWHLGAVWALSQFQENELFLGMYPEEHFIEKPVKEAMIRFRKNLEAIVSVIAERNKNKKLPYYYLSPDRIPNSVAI
Test: Inhibition of RBL Cell 5-Lipoxygenase
Assay type: biochemical
Conditions: read-out: Percent Inhibition (conc.)
Excerpt: Protocol published in R. W. Egan et al., "Advances in Prostaglandin, Thromboxane, and Leukotriene Research," Vol. 11 (edited by B. Samuelson et al., Raren Press, N.Y., 1983), p. 151.

Compound	inhibition at 15 µM	further results
CC(=O)Oc1c(Cc2ccccc2)sc2ccc(Cl)cc12 [Example 2, 3-Acetoxy-2-Benzyl-5-Chlorobenzo[b]thiophene]	> 95%	–
COc1ccc(-c2sc3ccc(C(F)(F)F)cc3c2O)cc1 [Example 15, 3-Hydroxy-2-(p-methoxyphenyl)-5-trifluoromethylbenzo[b]thiophene]	> 95%	–
CC(=O)Oc1c(C)sc2ccc(C(F)(F)F)cc12 [Example 23, 2-Methyl-3-Acetoxy-5-trifluoromethylbenzo[b]thiophene]	–	inhibition at 0.4 µM (0.4 μM): 100%
CC(=O)Oc1c(C=C(c2ccccc2)c2ccccc2)sc2ccc(C(F)(F)F)cc12 [Example 27, 2-(2,2-diphenylethenyl)-3-acetoxy-5-trifluoromethyl benzo[b]thiophene]	–	inhibition at 22 µM: 95%
COC(=O)CCc1sc2ccc(C(F)(F)F)cc2c1OC(C)=O [Example 22]	–	inhibition at 0.06 µM (0.06 μM): > 95%
CC(=O)Oc1cccc2sc(-c3ccccc3)c(OC(C)=O)c12 [Example 7, 3,4-Diacetoxy-2-Phenylbenzo[b]thiophene]	–	inhibition at 1 µM: > 95%
Cc1cccc(-c2sc3ccc(C(F)(F)F)cc3c2O)c1 [Example 16, 3-Hydroxy-2-(m-methylphenyl)-5-trifluoromethylbenzo[b]thiophene]	–	inhibition at 1 µM: > 95%
CC(=O)Oc1c(CSc2nc(-c3ccccc3)c(-c3ccccc3)[nH]2)sc2ccccc12 [Example 25, 2-(3-acetoxybenzo[b]thien-2-ylmethyl)thio-4,5-diphenylimidazole]	–	inhibition at 22 µM: 52%
CCCCc1sc2ccc(Cl)cc2c1OC(C)=O [Example 1, 3-Acetoxy-2-Butyl-5-Chlorobenzo[b]thiophene]	> 95%	–
CC(=O)Oc1c(-c2ccccc2)sc2ccc(C(F)(F)F)cc12 [Example 5, 3-Acetoxy-2-Phenyl-5-Trifluoromethylbenzo[b]thiophene]	> 95%	–
COC(=O)C=Cc1sc2ccccc2c1OC(C)=O [Example 21, Methyl 3(3-acetoxybenzo[b]thiophen-2-yl)acrylate]	–	inhibition at 0.036 µM (0.036 μM): 71%
Oc1c(-c2ccccc2)sc2ccc(C(F)(F)F)cc12 [Example 4, 3-Hydroxy-2-phenyl-5-trifluoromethylbenzo[b]thiophene]	–	inhibition at 5 µM (5 μM): > 95%
COC(=O)C=Cc1sc2ccccc2c1O [Example 20, Methyl 3-(3-hydroxybenzo[b]thiophen-2-yl)acrylate]	–	inhibition at 3.6 µM (3.6 μM): 100%

More lines, main results first:

inhibition at 15 µM	Compound	further results
> 95%	Oc1cccc2sc(-c3ccccc3)c(O)c12 [Example 8, 3,4-dihydroxy-2-phenylbenzo[b]thiophene]	–
> 95%	Oc1c(-c2ccccc2)sc2ccc(Cl)cc12 [Example 18, 5-Chloro-3-hydroxy-2-phenylbenzo[b]thiophene]	–
> 95%	Oc1c(-c2cccc(C(F)(F)F)c2)sc2ccc(C(F)(F)F)cc12 [Example 11, 3-Hydroxy-5-Trifluoromethyl-2-(m-trifluoromethylphenyl)-Benzo[b]thiophene]	–
> 95%	Oc1c(-c2cccc(Cl)c2)sc2ccc(C(F)(F)F)cc12 [Example 12, 3-Hydroxy-2-(m-chlorophenyl)-5-trifluoromethyl-benzo[b]thiophene]	–
> 95%	COc1cccc2sc(-c3ccccc3)c(O)c12 [Example 6, 3-Hydroxy-4-Methoxy-2-Phenylbenzo[b]thiophene]	–
